Assay results taken from US20100160369A1, “S1P1 Agonists and Methods of Making And Using” (EXELIXIS, INC., priority 2008, published 2010).

Columns and labels:
S1P1 [1] = molecular target: T1, S1P1 (Homo sapiens, UniProt P21453); experiment: CNG cAMP Assay (Assay 1); format: cell-based; parameters: host or cells: HEK293 cells expressing the CNG channel; conditions: read-out: Assay 1 EC50
In short: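 HEK293 cells expressing CNG channel and S1P1, membrane-potential dye loaded; compounds (top 10 μM, 10-point 3-fold, 1.8% DMSO) added with 25 μM Ro 20-1724, 500 nM NECA and 10 nM S1P for 90 min. T90/T0 fluorescence (Ex 350/Em 590 nm) normalised to NECA-alone vs DMSO; EC50 fitted.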
Target sequence in this assay (P21453 whole entry): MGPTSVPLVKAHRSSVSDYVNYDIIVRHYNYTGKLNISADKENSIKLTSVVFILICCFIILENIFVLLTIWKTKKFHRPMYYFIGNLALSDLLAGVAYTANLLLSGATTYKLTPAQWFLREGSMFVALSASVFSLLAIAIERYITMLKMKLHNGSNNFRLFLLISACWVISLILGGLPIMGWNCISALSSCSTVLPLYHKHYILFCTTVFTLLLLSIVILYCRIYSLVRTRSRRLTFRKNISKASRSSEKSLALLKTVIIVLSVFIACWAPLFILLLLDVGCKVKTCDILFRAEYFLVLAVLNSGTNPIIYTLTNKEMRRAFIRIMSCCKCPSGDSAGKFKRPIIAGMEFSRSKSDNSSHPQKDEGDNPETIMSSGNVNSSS

S1P1 [2] = molecular target: T1, S1P1; experiment: Tango β-arrestin Recruitment Assay in HEK293 cells (Assay 2a); format: cell-based; parameters: linker with TEV protease (N1a) cleavage site (C); host or cells: HEK293, transiently transfected; conditions: Tango β-arrestin Recruitment Assay, read-out: Assay 2a EC50
In short: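 HEK293 cells transiently expressing S1P1 (TEV-cleavable tTA fusion) with β-arrestin2–TEV; compounds up to 10 μM, 10-point 3-fold, 1% DMSO, 30 min then 16–18 h at 37 °C. Luciferase luminescence normalised to 5 μM S1P as 100% and DMSO as background; EC50 from percent-activity curves.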
Target sequence in this assay (P21453 whole entry): as above
Target sequence in this assay (P32121 whole entry partner): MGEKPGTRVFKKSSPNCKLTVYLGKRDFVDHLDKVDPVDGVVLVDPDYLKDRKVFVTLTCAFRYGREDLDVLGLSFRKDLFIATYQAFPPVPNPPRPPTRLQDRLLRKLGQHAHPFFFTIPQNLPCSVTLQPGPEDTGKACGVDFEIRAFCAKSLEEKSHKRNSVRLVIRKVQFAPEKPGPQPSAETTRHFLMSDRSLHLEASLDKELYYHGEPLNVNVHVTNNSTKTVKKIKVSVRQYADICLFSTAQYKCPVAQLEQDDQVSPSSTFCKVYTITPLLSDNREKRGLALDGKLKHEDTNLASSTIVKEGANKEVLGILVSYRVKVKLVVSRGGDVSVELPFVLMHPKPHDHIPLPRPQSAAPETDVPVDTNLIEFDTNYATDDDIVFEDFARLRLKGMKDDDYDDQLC

S1P1 [3] = molecular target: T1, S1P1; experiment: DELFIA GTP-Eu Binding Assay (Assay 3b); format: biochemical; parameters: purchased Lonza; host or cells: CHO cell membranes
Protocol: The DELFIA GTP-Eu binding assay (PerkinElmer) is a time-resolved fluorometric assay based on GDP-GTP exchange. CHO cell membranes (Lonza) expressing human S1P1 were incubated in 96-well filter plates (Pall, East Hills, N.Y.) in a final volume of 100 μL/well buffer containing 40 μg/mL membrane, 50 mM HEPES, 2 μM GDP, 10 mM MgCl2, 100 mM NaCl, 500 μg/mL Saponin and test compound. Test compounds were tested at maximum concentrations of 10 μM. Compounds were diluted (10 concentration points, 3-fold each) and added to the assay plate at a 1% final DMSO concentration. For each compound, there were duplicate assay plates and each assay plate had duplicate wells per concentration point. The plates were incubated for 30 min at room temperature on a plate shaker at low speed. GTP-Eu was added to each well (10 μL, 10 nM final concentration) and the plate was incubated for an additional 30 min with slow shaking The wells were washed with ice cold GTP washing buffer (3×150 μL) using a vacuum manifold and the assay plates read in an EnVision plate reader (PerkinElmer) at an excitation wavelength of 340 nm and an emission wavelength of 615 nm. To determine agonist activity, percent activity was calculated as [(test compound−background)/(positive control−background)*100], where background is the fluorescence in absence of compound and the positive control is the fluorescence from membranes incubated with 1 μM S1P (Avanti). The percent activities were plotted against compound concentration to determine IC50 or EC50 using XLFit (IDBS).
Assay 1 is the CNG cAMP Assay as described in Biological Example 1. Assay 2a and 2b are the Tango™ β-arrestin Recruitment Assay in HEK293 and U2OS cells, respectively, as described in Biological Example 2. Assay 3a is the hS1P1R GTPγS Binding Assay as described in Biological Example 3. Assay 3b is the GTP-Eu Binding Assay as described in Biological Example 3. EC50's were measured unless otherwise noted. […] In the table, “nt” means the Compound was not tested and “no” means the compound was tested but had no measurable activity under the assay conditions employed.
Target sequence in this assay (P21453 whole entry): as the sequence (P21453 whole entry) above

[4] = relative EC50 was measured (footnote 1), read-out: Assay 3b Relative EC50

## O=C(O)CCc1ccc(-c2noc(-c3cn4cc(C(F)(F)F)cc(Cl)c4n3)n2)c(Cl)c1 [Entry 1]
S1P1 [1]
  EC50: ≤ 100 nM
S1P1 [2]
  EC50: ≤ 100 nM
S1P1 [3]; read-out: Assay 3b EC50
  EC50: 500 to 1000 nM

## Cc1cc(CCC(=O)O)ccc1-c1noc(-c2cn3cc(C(F)(F)F)cc(Cl)c3n2)n1 [Entry 2]
S1P1 [1]
  EC50: ≤ 100 nM
S1P1 [2]
  EC50: ≤ 100 nM
S1P1 [3]; read-out: Assay 3b EC50
  EC50: 100 to 500 nM

## O=C(O)CCc1ccc(-c2noc(-c3cn4cc(C(F)(F)F)cc(Cl)c4n3)n2)cc1F [Entry 6]
S1P1 [1]
  EC50: ≤ 100 nM
S1P1 [2]
  EC50: ≤ 100 nM
S1P1 [3]; [4]
  EC50: 500 to 1000 nM

## O=C(O)CCc1cc(F)c(-c2noc(-c3cn4cc(C(F)(F)F)cc(Cl)c4n3)n2)c(F)c1 [Entry 10]
S1P1 [1]
  EC50: ≤ 100 nM
S1P1 [2]
  EC50: 100 to 500 nM
S1P1 [3]; [4]
  EC50: 1000 to 5000 nM

## COc1cc(Cl)c2nc(-c3nc(-c4cc(F)c(CCC(=O)O)cc4Cl)no3)cn2c1 [Entry 61]
S1P1 [1]
  EC50: ≤ 100 nM
S1P1 [2]
  EC50: ≤ 100 nM
S1P1 [3]; read-out: Assay 3b EC50
  EC50: 100 to 500 nM

## O=C(O)/C=C/c1cc(Cl)c(-c2noc(-c3cn4cc(C(F)(F)F)cc(Cl)c4n3)n2)cc1F [Entry 63]
S1P1 [1]
  EC50: ≤ 100 nM
S1P1 [2]
  EC50: ≤ 100 nM
S1P1 [3]; read-out: Assay 3b EC50
  EC50: 100 to 500 nM

## Cc1cc(C2CC2C(=O)O)ccc1-c1noc(-c2cn3cc(C(F)(F)F)cc(Cl)c3n2)n1 (stereo not drawn) [Entry 69]
S1P1 [1]
  EC50: ≤ 100 nM
S1P1 [2]
  EC50: 100 to 500 nM
S1P1 [3]; [4]
  EC50: 1000 to 5000 nM

## O=C(O)C1CC1c1ccc(-c2noc(-c3cn4cc(C(F)(F)F)cc(Cl)c4n3)n2)c(Cl)c1 (stereo not drawn) [Example 42, 2-(3-chloro-4-{5-[8-chloro-6-(trifluoromethyl)imidazo[1,2-a]pyridin-2-yl]-1,2,4-oxadiazol-3-yl}phenyl)cyclopropanecarboxylic acid]
S1P1 [1]
  EC50: ≤ 100 nM
S1P1 [2]
  EC50: 100 to 500 nM
S1P1 [3]; [4]
  EC50: 1000 to 5000 nM

## O=C(O)C1CC1c1cc(Cl)c(-c2noc(-c3cn4cc(C(F)(F)F)cc(Cl)c4n3)n2)cc1F (stereo not drawn) [Example 85, 2-(5-chloro-4-{5-[8-chloro-6-(trifluoromethyl)imidazo[1,2-a]pyridin-2-yl]-1,2,4-oxadiazol-3-yl}-2-fluorophenyl)cyclopropanecarboxylic acid]
S1P1 [1]
  EC50: ≤ 100 nM
S1P1 [2]
  EC50: ≤ 100 nM
S1P1 [3]; read-out: Assay 3b EC50
  EC50: 100 to 500 nM

## CS(=O)(=O)Nc1ccc(-c2noc(-c3cn4cc(C(F)(F)F)cc(Cl)c4n3)n2)c(Cl)c1 [Example 94, N-(3-chloro-4-{5-[8-chloro-6-(trifluoromethyl)imidazo[1,2-a]pyridin-2-yl]-1,2,4-oxadiazol-3-yl}phenyl)methanesulfonamide]
S1P1 [1]
  EC50: ≤ 100 nM
S1P1 [2]
  EC50: 100 to 500 nM
S1P1 [3]; read-out: Assay 3b EC50
  EC50: 500 to 1000 nM
